Experimental data published in patent US20230322789A1, “PYRAZOLOPYRIDAZINONE COMPOUND, AND PHARMACEUTICAL COMPOSITION AND USE THEREOF” (BroadenBio Co., Ltd., priority 2020, published 2023).
Counter-ions that a name gives are not always drawn.

Biological target: HPK1 (Homo sapiens (Human), UniProt Q92918)
Assay: HPK1 kinase activity inhibition test (ADP-Glo, luminescence)
Type: biochemical
Settings: HPK1 5 nM, ATP 2 μM, read-out: IC50, inhibitory effects of compounds on HPK1 kinase activity
Protocol: 1. HPK1 Kinase Activity Inhibition Test
The kinase activity of HPK1 is manifested as activity of autophosphorylation and phosphorylation of downstream substrates. In the process of autophosphorylation, additional substrates are not required, and ATP is consumed to generate ADP. The amount of the product was measured by ADP-Glo reagent and luminescence method to reflect kinase activity.
Test compounds: compounds prepared in the examples of this application.
Prepare compound stock solution: dissolve the compound to be tested in 100% DMSO to make a 10 mM stock solution;
Prepare 4× Kinase Reaction Buffer:
Prepare 2×HPK1 Kinase Solution:
Dilute the stock solution of the compound to be tested by 5 times with […], make a 4-fold equal dilution in a 96-well dilution plate, add 1 μL of the compound to 49 µL of kinase reaction buffer, and shake on a microplate shaker for 20 minutes. Transfer 2 μL of […] kinase solution to 384 reaction plate, add 1 μL of the test compound to the 384 reaction plate (Greiner, 784075), centrifuge for 1 minute (1000 rpm/min), incubate at 25° C. for 10 minutes. Transfer […] of the 4×ATP mixture to a 384 reaction plate, centrifuge for 1 minute (1000 rpm/mm), and incubate at 25° C. for 60 minutes. In the reaction system, the final concentration of DMSO was […]. Transfer 4 μL of ADP-Glo to a 384 reaction plate, centrifuge for 1 minute (1000 rpm/min), and incubate at 25° C. for 40 minutes. Transfer 8 μL detection solution to a 384 reaction plate, centrifuge for 1 minute (1000 rpm/min), and incubate at 25° C. for 40 minutes. The […] signal was read using a Biotek multi-function plate reader, and the […] (half inhibitory concentration) of the compound was obtained using a four-coefficient nonlinear fitting formula.

Chain of HPK1 (Q92918 whole entry): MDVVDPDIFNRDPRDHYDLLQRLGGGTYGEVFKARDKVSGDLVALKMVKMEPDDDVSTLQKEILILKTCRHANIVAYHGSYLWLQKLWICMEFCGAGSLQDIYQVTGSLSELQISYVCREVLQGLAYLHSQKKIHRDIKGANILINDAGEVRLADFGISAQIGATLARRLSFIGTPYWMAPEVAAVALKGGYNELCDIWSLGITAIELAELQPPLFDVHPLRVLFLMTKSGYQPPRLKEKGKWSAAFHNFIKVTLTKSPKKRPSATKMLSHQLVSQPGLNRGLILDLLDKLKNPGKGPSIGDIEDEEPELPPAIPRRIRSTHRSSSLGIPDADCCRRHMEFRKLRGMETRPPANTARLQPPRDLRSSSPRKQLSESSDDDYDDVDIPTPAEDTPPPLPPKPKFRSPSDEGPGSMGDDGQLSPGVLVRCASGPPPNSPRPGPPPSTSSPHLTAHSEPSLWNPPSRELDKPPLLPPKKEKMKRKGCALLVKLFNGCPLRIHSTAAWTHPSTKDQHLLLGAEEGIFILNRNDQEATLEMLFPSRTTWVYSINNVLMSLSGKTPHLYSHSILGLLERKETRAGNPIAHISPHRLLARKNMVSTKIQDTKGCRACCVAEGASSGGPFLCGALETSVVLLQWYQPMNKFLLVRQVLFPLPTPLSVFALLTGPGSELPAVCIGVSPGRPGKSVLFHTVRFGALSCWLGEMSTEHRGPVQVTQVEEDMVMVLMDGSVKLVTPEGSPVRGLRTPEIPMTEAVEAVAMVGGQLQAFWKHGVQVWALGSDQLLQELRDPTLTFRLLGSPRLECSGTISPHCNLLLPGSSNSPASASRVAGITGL

Row | IC50 [nM] | SMILES
1 | 50 to 500 | Cc1cc(C#N)cc(F)c1-n1nc2c(-c3ccc4c(c3)CN(C(=O)C(C)O)CC4)n[nH]c2cc1=O (centres unmarked) [Compound 173, 3-fluoro-4-(3-(2-(2-hydroxylpropionyl)-1,2,3,4-tetrahydroisoquinolin-7-yl)-6-oxo-1H-pyrazolo[4,3-c]pyridazin-5(6H)-yl)-5-methylbenzonitrile]
2 | 50 to 500 | CC(=O)N1CCN(c2ccc(-c3n[nH]c4cc(=O)n(-c5c(C)cccc5F)nc34)cn2)CC1 [Compound 102, 3-(6-(4-acetylpiperazin-1-yl)pyrid-3-yl)-5-(2-fluoro-6-methylphenyl)-1H-pyrazolo[4,3-c]pyridazin-6(5H)-one]
3 | 50 to 500 | Cc1cccc(F)c1-n1nc2c(-c3ccc4c(c3)CN(C)C(C)(C)C4)n[nH]c2cc1=O [Compound 178, 5-(2-fluoro-6-methylphenyl)-3-(2,3,3-trimethyl-1,2,3,4-tetrahydroisoquinolin-7-yl)-1H-pyrazolo[4,3-c]pyridazin-6(5H)-one]
4 | 50 to 500 | COc1cccc(F)c1-n1nc2c(-c3ccc4c(c3F)CN(C)CC4)n[nH]c2cc1=O [Compound 190, 3-(8-fluoro-2-methyl-1,2,3,4-tetrahydroisoquinolin-7-yl)-5-(2-fluoro-6-methoxyphenyl)-1H-pyrazolo[4,3-c]pyridazin-6(5H)-one]
5 | ≤ 50 | CCN1CCN(c2ccc(-c3n[nH]c4cc(=O)n(-c5c(C)cccc5F)nc34)cn2)CC1 [Compound 101, 3-(6-(4-ethylpiperazin-1-yl)pyrid-3-yl)-5-(2-fluoro-6-methylphenyl)-1H-pyrazolo[4,3-c]pyridazin-6(5H)-one]
6 | 50 to 500 | COc1cccc(F)c1-n1nc2c(-c3cc4c(cc3F)CCN(C)C4)n[nH]c2cc1=O [Compound 191, 3-(6-fluoro-2-methyl-1,2,3,4-tetrahydroisoquinolin-7-yl)-5-(2-fluoro-6-methoxyphenyl)-1H-pyrazolo[4,3-c]pyridazin-6(5H)-one]
7 | 50 to 500 | Cc1cccc(F)c1-n1nc2c(-c3ccc4c(c3)CN(C3CCN(C)CC3)CC4)n[nH]c2cc1=O [Compound 168, 5-(2-fluoro-6-methylphenyl)-3-(2-(1-methylpiperidin-4-yl)-1,2,3,4-tetrahydroisoquinolin-7-yl)-1H-pyrazolo[4,3-c]pyridazin-6(5H)-one]
8 | 50 to 500 | Cc1cccc(F)c1-n1nc2c(-c3ccc4c(c3)CN3CCOC[C@@H]3C4)n[nH]c2cc1=O [Compound 181, (S)-5-(2-fluoro-6-methylphenyl)-3-(1,3,4,6,11,11a-hexahydro-[1,4]oxazino[4,3-b]isoquinolin-8-yl)-1H-pyrazolo[4,3-c]pyridazin-6(5H)-one]
9 | 50 to 500 | COc1cc(F)cc(F)c1-n1nc2c(-c3ccc4c(c3)CN(C)CC4)n[nH]c2cc1=O [Compound 158, 5-(2,4-difluoro-6-methoxyphenyl)-3-(2-methyl-1,2,3,4-tetrahydroisoquinolin-7-yl)-1H-pyrazolo[4,3-c]pyridazin-6(5H)-one]
10 | ≤ 50 | COc1cccc(F)c1-n1nc2c(-c3ccc(N4CCN(C)CC4)nc3)n[nH]c2cc1=O [Compound 10]
11 | ≤ 50 | COc1cccc(F)c1-n1nc2c(-c3ccc(C4CCN(C)CC4)cc3)n[nH]c2cc1=O [Compound 24, 5-(2-fluoro-6-methoxyphenyl)-3-(4-(1-methylpiperidin-4-yl)phenyl)-1H-pyrazolo[4,3-c]pyridazin-6(5H)-one]
12 | 500 to 2000 | COc1ccc(-n2nc3c(-c4ccc(C5CCN(C)CC5)cc4)n[nH]c3cc2=O)c(OC)c1 [Compound 26, 5-(2,4-dimethoxyphenyl)-3-(4-(1-methylpiperidin-4-yl)phenyl)-1H-pyrazolo[4,3-c]pyridazin-6(5H)-one]
13 | ≤ 50 | Cc1cccc(F)c1-n1nc2c(-c3cc(N4CCN(C)CC4)ccc3F)n[nH]c2cc1=O [Compound 208, 3-(2-fluoro-5-(4-methylpiperazin-1-yl)phenyl)-5-(2-fluoro-6-methylphenyl)-1H-pyrazolo[4,3-c]pyridazin-6(5H)-one]
14 | 50 to 500 | Cc1cccc(F)c1-n1nc2c(-c3ccc4c(c3)CCN(C3CCOCC3)C4)n[nH]c2cc1=O [Compound 195, 5-(2-fluoro-6-methylphenyl)-3-(2-(tetrahydro-2H-pyran-4-yl)-1,2,3,4-tetrahydroisoquinolin-6-yl)-1H-pyrazolo[4,3-c]pyridazin-6(5H)-one]
15 | 500 to 2000 | Cc1cccc(F)c1-n1nc2c(-c3ccc4c(c3)C(CN)N(C)CC4)n[nH]c2cc1=O (centres unmarked) [Compound 186, 3-(1-(aminomethyl)-2-methyl-1,2,3,4-tetrahydroisoquinolin-7-yl)-5-(2-fluoro-6-methylphenyl)-1H-pyrazolo[4,3-c]pyridazin-6(5H)-one hydrochloride]
16 | 500 to 2000 | Cc1cccc(F)c1-n1nc2c(-c3ccc4c(c3)C(=O)N(C)CC4)n[nH]c2cc1=O [Compound 183]
17 | 50 to 500 | Cc1cccc(F)c1-n1nc2c(-c3cnc4c(c3)CN(C)CC4)n[nH]c2cc1=O [Compound 187, 5-(2-fluoro-6-methylphenyl)-3-(6-methyl-5,6,7,8-tetrahydro-1,6-naphthyridin-3-yl)-1H-pyrazolo[4,3-c]pyridazin-6(5H)-one]
18 | 50 to 500 | Cc1cccc(F)c1-n1nc2c(-c3ccc4c(c3)CN(C)[C@@H](CO)C4)n[nH]c2cc1=O [Compound 179, (R)-5-(2-fluoro-6-methylphenyl)-3-(3-(hydroxymethyl)-2-methyl-1,2,3,4-tetrahydroisoquinolin-7-yl)-1H-pyrazolo[4,3-c]pyridazin-6(5H)-one]
19 | 500 to 2000 | Cc1cccc(F)c1-n1nc2c(-c3ccc(CN4CCN(C)CC4=O)cc3)n[nH]c2cc1=O [Compound 15, 5-(2-fluoro-6-methylphenyl)-3-(4-((4-methyl-2-oxo-piperazin-1-yl)methyl)phenyl)-1H-pyrazolo[4,3-c]pyridazin-6(5H)-one]
20 | 500 to 2000 | CN1CCN(c2ccc(-c3n[nH]c4cc(=O)n(-c5cccc6c5COC6)nc34)cc2)CC1 [Compound 75, 5-(1,3-dihydroisobenzofuran-4-yl)-3-(4-(4-methylpiperazin-1-yl)phenyl)-1H-pyrazolo[4,3-c]pyridazin-6(5H)-one]
21 | 500 to 2000 | Cc1cccc(F)c1-n1nc2c(-c3cnn(C4CCN(C)CC4)c3)n[nH]c2cc1=O [Compound 19, 5-(2-fluoro-6-methylphenyl)-3-(1-(1-methylpiperidin-4-yl)-1H-pyrazol-4-yl)-1H-pyrazolo[4,3-c]pyridazin-6(5H)-one]
22 | 500 to 2000 | Cc1cccc(F)c1-n1nc2c(-c3ccc(N4CCN(C)CC4=O)cc3)n[nH]c2cc1=O [Compound 12, 5-(2-fluoro-6-methylphenyl)-3-(4-(4-methyl-2-oxopiperazin-1-yl)phenyl)-1H-pyrazolo[4,3-c]pyridazin-6(5H)-one]
23 | ≤ 50 | Cc1cccc(F)c1-n1nc2c(-c3ccc4c(c3)CCN(C3CN(C)C3)C4)n[nH]c2cc1=O [Compound 194, 5-(2-fluoro-6-methylphenyl)-3-(2-(1-methylazetidin-3-yl)-1,2,3,4-tetrahydroisoquinolin-6-yl)-1H-pyrazolo[4,3-c]pyridazin-6(5H)-one]
24 | 50 to 500 | Cc1cc(Cl)cc(F)c1-n1nc2c(-c3ccc(N4CCN(C)CC4)cc3)n[nH]c2cc1=O [Compound 78, 5-(4-chloro-2-fluoro-6-methylphenyl)-3-(4-(4-methylpiperazin-1-yl)phenyl)-1H-pyrazolo[4,3-c]pyridazin-6(5H)-one]
25 | ≤ 50 | COC[C@@H]1Cc2ccc(-c3n[nH]c4cc(=O)n(-c5c(C)cccc5F)nc34)cc2CN1C [Compound 180, (S)-5-(2-fluoro-6-methylphenyl)-3-(3-(methoxymethyl)-2-methyl-1,2,3,4-tetrahydroisoquinolin-7-yl)-1H-pyrazolo[4,3-c]pyridazin-6(5H)-one]
26 | 50 to 500 | Cc1cccc(F)c1-n1nc2c(-c3ccc(N4CCN(C)C(C(=O)O)C4)cc3)n[nH]c2cc1=O (centres unmarked) [Compound 131, 4-(4-(5-(2-fluoro-6-methylphenyl)-6-oxo-5,6-dihydro-1H-pyrazolo[4,3-c]pyridazin-3-yl)phenyl)-1-methylpiperazin-2-carboxylic acid]
27 | 500 to 2000 | Cc1cccc(F)c1-n1nc2c(-c3cnn(C)c3)n[nH]c2cc1=O [Compound 17, 5-(2-fluoro-6-methylphenyl)-3-(1-methyl-1H-pyrazol-4-yl)-1H-pyrazolo[4,3-c]pyridazin-6(5H)-one]
28 | ≤ 50 | Cc1cccc(F)c1-n1nc2c(-c3ccc(N4CCN5C(=O)OCC5C4)cc3)n[nH]c2cc1=O (centres unmarked) [Compound 122, 7-(4-(5-(2-fluoro-6-methylphenyl)-6-oxo-5,6-dihydro-1H-pyrazolo[4,3-c]pyridazin-3-yl)phenyl)tetrahydro-1H-oxazolo[3,4-a]pyrazin-3(5H)-one]

Row | SMILES | IC50 [nM]
29 | Cc1cccc(F)c1-n1nc2c(-c3cccc(N4CC5CCC(C4)N5C)c3)n[nH]c2cc1=O [Compound 201, 5-(2-fluoro-6-methylphenyl)-3-(3-(8-methyl-3,8-diazabicyclo[3.2.1]octan-3-yl)phenyl)-1H-pyrazolo[4,3-c]pyridazin-6(5H)-one] | ≤ 50
